Reference: patent publication US9657015B2, “Substituted bicyclic dihydropyrimidinones and their use as inhibitors of neutrophil elastase activity” (Boehringer Ingelheim International GmbH, priority 2014, dated 2017)
In brackets after ≈: the same amount, converted by molar mass.

Legend:
[1] = target: Human neutrophil elastase (Homo sapiens (Human), UniProt P08246); test: Human Neutrophil Elastase Assay; type: biochemical; details: substrate MeOSuc-Ala-Ala-Pro-Val-AMC 250 μM, pH 7.5, room temperature
Sequence of Human neutrophil elastase (P08246 30-247): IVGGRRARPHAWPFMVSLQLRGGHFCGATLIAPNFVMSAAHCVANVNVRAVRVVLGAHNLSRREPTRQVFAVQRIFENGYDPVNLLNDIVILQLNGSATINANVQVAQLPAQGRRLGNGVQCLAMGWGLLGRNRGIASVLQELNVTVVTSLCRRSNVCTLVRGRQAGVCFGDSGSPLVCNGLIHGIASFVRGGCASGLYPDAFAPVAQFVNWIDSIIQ
Procedure: The following buffers were used: Compound buffer: 100 mM Tris, 500 mM NaCl, adjusted to pH 7.5; Assay buffer: 100 mM Tris, 500 mM NaCl, adjusted to pH 7.5, containing 0.01% BSA.
Assay conditions: Test compounds were prediluted in DMSO and subsequently in compound buffer (5% DMSO final). […] After inactivation of the enzyme, fluorescence intensities were measured at 380 nm excitation and 460 nm emission wavelengths.
Each plate contains wells with a high value control (DMSO+enzyme+substrate) and wells with a low value control (DMSO+inactivated enzyme+substrate). IC50 values were estimated using a sigmoidal concentration response curve with variable slope. Means of low values were taken as 0%, means of high values as 100%.

[2] = target: neutrophil elastase in human plasma (Homo sapiens (Human), UniProt P08246); test: Neutrophil elastase inhibitory activity in human plasma; type: biochemical; details: human plasma assay (zymosan-stimulated blood plasma), substrate 250 μM, pH 7.5
Sequence of neutrophil elastase in human plasma (P08246 30-247): as above
Procedure: Assay for the Determination of Neutrophil Elastase Inhibitory Activity in Human Plasma
Citrated blood from human healthy donors is mixed with zymosan suspension and incubated at room temperature. This leads to the stimulation of neutrophils and the release of neutrophil elastase into the plasma. The stimulated blood is centrifuged to generate the neutrophil elastase enriched plasma.
Preparation of Zymosan Working Solution:
Various concentrations of the neutrophil elastase inhibitor are incubated with plasma. […] A dose response curve is generated to calculate the EC50 of the inhibitor.

[3] = Metabolic stability with human liver microsomes; type: in vitro ADME; details: pH 7.6; pooled human liver microsomes, 37° C., 1 μM test compound, 1 mg/ml microsomal protein, NADPH; read-out: t1/2 INVITRO
[4] = Drug transport across human Caco-2 cells; type: in vitro ADME; details: human, Caco-2 monolayers, pH 7.2, 37° C.; for Papp A→B at 10 µM: apical-to-basal, read-out: PEAB; for Papp B→A at 10 µM: basal-to-apical, read-out: PEBA
Text: (§1) Assay for Determination of Drug Transport Across Human Caco-2 Cells
(§2) The assay provides information on the potential of a compound to pass the cell membrane, on the extent of oral absorption as well as on whether the compound is actively transported by uptake and/or efflux transporters. For the measurement of permeability across polarized, confluent human cancer colon carcinoma cells 2 (Caco-2) cell monolayers grown on permeable filter supports are used as the in vitro absorption model.
(§3) Apparent permeability coefficients (PE) of the compounds across the Caco-2 monolayers are measured (pH 7.2, 37° C.) in apical-to-basal (AB) (absorptive) and basal-to-apical (BA) (secretory) transport direction. AB permeability (PEAB) represents drug absorption from the intestine into the blood and BA permeability (PEBA) drug secretion from the blood back into the intestine via both passive permeability as well as active transport mechanisms mediated by efflux and uptake transporters that are expressed on the Caco-2 cells. The compounds are assigned to permeability/absorption classes by comparison of the AB permeabilities with the AB permeabilities of reference compounds with known in vitro permeability and oral absorption in the human. Identical or similar permeabilities in both transport directions indicate passive permeation, vectorial permeability points to additional active transport mechanisms. […] Active transport is concentration-dependently saturable.
(§4) Caco-2 cells (1-2*10^5 cells/cm^2 area) are seeded on filter inserts (Costar transwell polycarbonate or PET filters, 0.4 μm pore size) and cultured (DMEM) for 10 to 25 days. Compounds are dissolved in appropriate solvent (like DMSO, 1-20 mM stock solutions). Stock solutions are diluted with HTP-4 buffer (128.13 mM NaCl, 5.36 mM KCl, 1 mM MgSO4, 1.8 mM CaCl2, 4.17 mM NaHCO3, 1.19 mM Na2HPO4×7H2O, 0.41 mM NaH2PO4×H2O, 15 mM HEPES, 20 mM glucose, pH 7.2) to prepare the transport solutions (typically 10 μM compound, final DMSO<=0.5%). The transport solution (TL) is applied to the apical or basolateral donor side for measuring A-B or B-A permeability (3 filter replicates), respectively. The receiver side contains HTP-4 buffer supplemented with 2% BSA. Samples are collected at the start and end of experiment from the donor and at various time intervals for up to 2 hours also from the receiver side for concentration measurement by LC-MS/MS or scintillation counting. Sampled receiver volumes are replaced with fresh receiver solution.
(§5) The apparent permeability coefficients (PEAB and PEBA) of selected compounds in the Caco-2 drug transport assay described above are listed in Table 9.

[5] = Aqueous solubility (High Throughput Method); type: physicochemical; details: McIlvaine buffer pH 6.8, 2.5% DMSO, 24 h shaking; for solubility at 24 h: McIlvaine buffer pH 6.8 with 2.5% DMSO, aqueous buffer, kinetic from dmso stock
Procedure: Assay for Determination of Aqueous Solubility (“High Throughput Method”)
Starting from a 10 mM DMSO stock solution, aliquots are diluted with acetonitrile/water (1/1) and McIlvaine buffer pH 6.8, respectively. After 24 h of shaking, the solutions or suspensions are filtered and analyzed by LC-UV. The amount dissolved in buffer is compared to the amount dissolved in the acetonitrile/water (1/1) solution. Solubility is measured from 0.001 to 0.125 mg/ml at a DMSO concentration of 2.5%. If more than 90% of the compound is dissolved in buffer, the value is marked with “>”.

[6] = Aqueous solubility (Shaked Flask Method); type: physicochemical; details: aqueous buffer, thermodynamic from solid, pH 6.8 (McIlvaine buffer)
Procedure: Assay for Determination of Aqueous Solubility (“Shaked Flask Method”)
Saturated solutions are prepared in well plates by adding an appropriate volume of selected aqueous media (typically in the range of 0.25-1.5 ml) into each well which contains a known quantity of solid drug substance (typically in the range 0.5-5.0 mg). The wells are shaken or stirred for a predefined time period (typically in a range of 2-24 h) and then filtered using appropriate filter membranes (typically PTFE-filters with 0.45 μm pore size). Filter absorption is avoided by discarding the first few drops of filtrate. The amount of dissolved drug substance is determined by UV spectroscopy or by HPLC with UV-detection. In addition, the pH of the aqueous saturated solution is measured using a glass-electrode pH meter.

[7] = target: cytochrome P450 2C9 (Homo sapiens (Human), UniProt P11712); test: Cytochrome P450 2C9 inhibition; type: in vitro ADME; details: human liver microsomes, Diclofenac hydroxylation, 37° C.
Sequence of cytochrome P450 2C9 (P11712 whole entry): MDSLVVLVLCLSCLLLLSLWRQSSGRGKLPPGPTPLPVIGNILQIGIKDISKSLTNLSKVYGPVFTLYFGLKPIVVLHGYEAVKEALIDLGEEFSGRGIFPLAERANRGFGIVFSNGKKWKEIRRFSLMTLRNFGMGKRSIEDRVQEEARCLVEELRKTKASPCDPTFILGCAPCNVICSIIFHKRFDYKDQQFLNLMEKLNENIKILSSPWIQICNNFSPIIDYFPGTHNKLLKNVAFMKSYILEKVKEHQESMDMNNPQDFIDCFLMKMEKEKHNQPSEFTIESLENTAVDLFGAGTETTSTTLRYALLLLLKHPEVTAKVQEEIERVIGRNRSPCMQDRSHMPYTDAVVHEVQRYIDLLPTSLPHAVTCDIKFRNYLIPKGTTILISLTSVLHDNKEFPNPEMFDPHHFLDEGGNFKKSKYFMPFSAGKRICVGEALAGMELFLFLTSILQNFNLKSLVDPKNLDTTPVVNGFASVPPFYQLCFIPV
Text: Assay for Determination of Cytochrome P450 2C9 Inhibition

[8] = target: cytochrome P450 2C19 (Homo sapiens (Human), UniProt P33261); test: Cytochrome P450 2C19 inhibition; type: in vitro ADME; details: human liver microsomes, (S)-Mephenytoin hydroxylation, 37° C.
Sequence of cytochrome P450 2C19 (P33261 whole entry): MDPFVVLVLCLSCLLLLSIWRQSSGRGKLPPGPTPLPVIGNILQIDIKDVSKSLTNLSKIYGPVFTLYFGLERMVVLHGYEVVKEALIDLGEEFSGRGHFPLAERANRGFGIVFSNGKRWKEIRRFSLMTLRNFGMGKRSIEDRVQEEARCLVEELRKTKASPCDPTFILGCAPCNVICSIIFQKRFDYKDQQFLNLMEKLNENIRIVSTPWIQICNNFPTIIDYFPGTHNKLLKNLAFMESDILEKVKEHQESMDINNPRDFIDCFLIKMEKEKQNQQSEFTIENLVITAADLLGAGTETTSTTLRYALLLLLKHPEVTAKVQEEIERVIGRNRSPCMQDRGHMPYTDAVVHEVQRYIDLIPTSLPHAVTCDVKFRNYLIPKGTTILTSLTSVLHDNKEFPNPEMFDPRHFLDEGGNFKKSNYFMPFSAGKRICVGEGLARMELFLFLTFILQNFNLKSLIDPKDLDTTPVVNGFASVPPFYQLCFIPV
Text: Assay for Determination of Cytochrome P450 2C19 Inhibition

[9] = target: cytochrome P450 2C8 (Homo sapiens (Human), UniProt P10632); test: Cytochrome P450 2C8 inhibition; type: in vitro ADME; details: human liver microsomes, Amodiaquine deethylation, 37° C.
Sequence of cytochrome P450 2C8 (P10632 whole entry): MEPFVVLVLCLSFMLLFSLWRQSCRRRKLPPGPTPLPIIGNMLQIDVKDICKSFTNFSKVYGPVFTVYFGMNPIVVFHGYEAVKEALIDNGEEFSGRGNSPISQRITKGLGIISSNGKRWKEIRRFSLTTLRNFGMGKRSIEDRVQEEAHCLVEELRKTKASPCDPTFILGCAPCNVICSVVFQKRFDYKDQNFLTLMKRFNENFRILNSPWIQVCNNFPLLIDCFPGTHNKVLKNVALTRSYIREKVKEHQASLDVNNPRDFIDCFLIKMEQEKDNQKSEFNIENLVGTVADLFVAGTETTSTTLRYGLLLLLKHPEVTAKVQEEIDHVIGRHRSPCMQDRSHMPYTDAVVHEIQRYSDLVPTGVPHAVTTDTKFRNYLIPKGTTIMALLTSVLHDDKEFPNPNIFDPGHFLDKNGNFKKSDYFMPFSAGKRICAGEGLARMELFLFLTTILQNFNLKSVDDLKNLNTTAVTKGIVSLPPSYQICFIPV
Text: Assay for Determination of Cytochrome P450 2C8 Inhibition

[10] = Metabolic stability with human hepatocytes; type: in vitro ADME; details: human hepatocyte suspension (typically cryopreserved), 1 μM test compound, six hours, scaled with well stirred model
Procedure: Assay for the Determination of Metabolic Stability with Human Hepatocytes
The metabolic degradation of the test compound is assayed in a human hepatocyte suspension. Human hepatocytes (typically cryopreserved) are incubated in an appropriate buffer system (e.g. Dulbecco's modified eagle medium plus 3.5 μg glucagon/500 mL, 2.5 mg insulin/500 mL and 3.75 mg/500 mL hydrocortison) containing 5% species serum. Following a (typically) 30 min preincubation in an incubator (37° C., 10% CO2), 5 μl of test compound solution (80 μM; from 2 mM stock solution in DMSO diluted 1:25 with medium) are added into 395 μl hepatocyte suspension (cell density in the range 0.25-5*10^6 cells/mL, typically 1*10^6 cells/mL; final concentration of test compound 1 μM, final DMSO concentration 0.05%). The cells are incubated for six hours (incubator, orbital shaker) and samples (25 μl) are taken at 0, 0.5, 1, 2, 4 and 6 hours. Samples are transferred into acetonitrile and pelleted by centrifugation (5 min) The supernatant is transferred to a new 96-deepwell plate, evaporated under nitrogen and resuspended. The decline of parent compound is analyzed by LC-MS/MS.
The intrinsic clearance CL_[…] is calculated as follows: CL_[…]=Dose/AUC=(C0/CD)/(AUD+clast/k)*1′000/60 (C0: initial concentration in the incubation [μM], CD: cell density of vital cells [10^6 cells/mL], AUD: area under the data [μM*h], clast: concentration of last data point [μM], k: slope of the regression line for parent decline [h^−1])
The calculated in vitro hepatic intrinsic clearance can be scaled up to the intrinsic in vivo hepatic clearance and used to predict hepatic in vivo blood clearance (CL) by the use of a liver model (well stirred model): CL_[…]_INVIVO [ml/min/kg]=(CL_[…] [μL/min/10^6 cells]*hepatocellularity [10^6 cells/g liver]*liver factor [g/kg bodyweight])/1′000 CL [ml/min/kg]=CL_[…]_INVIVO [ml/min/kg]*hepatic blood flow [ml/min/kg]/(CL_[…]_INVIVO [ml/min/kg]+hepatic blood flow [ml/min/kg]) Qh [%]=CL [ml/min/kg]/hepatic blood flow [ml/min/kg]) (Hepatocellularity, human: 120*10^6 cells/g liver; liver factor, human: 25.7 g/kg bodyweight; blood flow, human: 21 ml/(min*kg))

[11] = tested on: Caco-2 cells; test: Drug transport across human Caco-2 cells; type: in vitro ADME; details: Caco-2 monolayers, pH 7.2, 37° C.; for PEAB: apical-to-basal; for PEBA: basal-to-apical
Text: as §1, §2, §3, §4, §5

Q: Which results are given for `N#Cc1ccc([C@H]2NC(=O)N(c3cccc(C(F)(F)F)c3)C3=C2C(=O)NCC3)cc1` [Example 1A, (R)-4-(2,5-Dioxo-1-(3-(trifluoromethyl)phenyl)-1,2,3,4,5,6,7,8-octahydropyrido[4,3-d]-pyrimidin-4-yl)benzonitrile]?
A: IC50 [1]: 3.1 nM; IC50 [2]: 3.4 nM; half-life at 1 μM [3]: > 2.17 h; Papp A→B at 10 µM [4]: 6.6 ×10⁻⁶ cm/s; Papp B→A at 10 µM [4]: 44 ×10⁻⁶ cm/s; solubility at 24 h [5]: > 100 µg/mL; solubility [6]: ≥ 10 µg/mL; IC50 [7]: > 50000 nM; IC50 [8]: > 50000 nM; IC50 [9]: > 50000 nM

Q: Which IC50 [1] does the source give for `CN1C(=O)N(c2cccc(C(F)(F)F)c2)C2=C(C(=O)NCC2)[C@H]1c1ccc(C#N)cc1-c1cnn(C)c1` [Example 31A, 3-(1-Methyl-1H-pyrazol-4-yl)-4-[(4R)-3-methyl-2,5-dioxo-1-[3-(trifluoromethyl)-phenyl]-1H,2H,3H,4H,5H,6H,7H,8H-pyrido[4,3-d]pyrimidin-4-yl]benzonitrile] here?
A: Its IC50 is < 1 nM.

Q: What about the IC50 [2] of the same compound?
A: The IC50 was < 1 nM.

Q: What about the half-life at 1 μM [3] of the same compound?
A: The half-life at 1 μM was > 2.17 h.

Q: And the CLhep predicted at 1 μM [10]?
A: The CLhep predicted at 1 μM was 3 mL/min/kg.

Q: What about the Papp A→B at 10 µM [4] of the same compound?
A: Its Papp A→B at 10 µM is 12 ×10⁻⁶ cm/s.

Q: What about the Papp B→A at 10 µM [4] of the same compound?
A: The Papp B→A at 10 µM was 100 ×10⁻⁶ cm/s.

Q: And the solubility at 24 h [5]?
A: Its solubility at 24 h is 11 µg/mL (≈ 21.7 µM).

Q: And the solubility [6]?
A: The solubility was ≥ 10 µg/mL.

Q: What about the IC50 [7] of the same compound?
A: The IC50 was > 50000 nM.

Q: And the IC50 [8]?
A: Its IC50 is > 50000 nM.

Q: What about the IC50 [9] of the same compound?
A: The IC50 was > 50000 nM.

Q: Which results are given for `CN1C(=O)N(c2cccc(C(F)(F)F)c2)C2=C(C(=O)NCC2)C1c1ccc(C#N)cc1-c1cccnc1` (stereo not drawn) [Example 34, 4-{3-Methyl-2,5-dioxo-1-[3-(trifluoromethyl)phenyl]-1H,2H,3H,4H,5H,6H,7H,8H-pyrido[4,3-d]pyrimidin-4-yl}-3-(pyridin-3-yl)benzonitrile]?
A: IC50 [1]: < 1 nM; IC50 [2]: 1.6 nM; CLhep predicted at 1 μM [10]: 4 mL/min/kg; Papp A→B at 10 µM [4]: 11 ×10⁻⁶ cm/s; Papp B→A at 10 µM [4]: 79 ×10⁻⁶ cm/s; IC50 [7]: > 50000 nM; IC50 [8]: > 50000 nM; IC50 [9]: > 50000 nM

Q: For `CN1CCC2=C(C1=O)C(c1ccc(C#N)cc1-c1ccncc1)N(C)C(=O)N2c1cccc(C(F)(F)F)c1` (stereo not drawn) [Example 36.2], which IC50 [1] is on record?
A: The IC50 was 1.3 nM.

Q: What about the IC50 [2] of the same compound?
A: Its IC50 is 1.8 nM.

Q: What about the PEAB [11] of the same compound?
A: Its PEAB is 25 ×10⁻⁶ cm/s.

Q: What about the PEBA [11] of the same compound?
A: The PEBA was 150 ×10⁻⁶ cm/s.

Q: And the Aqueous solubility [5]?
A: The Aqueous solubility was 70 µg/mL.

Q: What does the source list for `CN1CCC2=C(C1=O)C(c1ccc(C#N)cc1-c1cncnc1)N(C)C(=O)N2c1cccc(C(F)(F)F)c1` (stereo not drawn) [Example 36.3]?
A: IC50 [1]: 1.1 nM; IC50 [2]: 1.4 nM; PEAB [11]: 12 ×10⁻⁶ cm/s; PEBA [11]: 110 ×10⁻⁶ cm/s; Aqueous solubility [5]: 76 µg/mL
